Test systems include COLO 205 colon; NCI-H226 lung; KM12 colon; MDA-MB-231 breast; ACHN renal; SNB-75 CNS; HCC-2998 colon; NCI-H460 lung; OVCAR-4 ovarian; HL-60(TB) leukemia; IGROV1 ovarian; MALME-3M melanoma; HOP-62 NSCLC; SF-539 CNS.
Holding throughout (assay): NCI anticancer screen, dose series, 48 h

Structures are written as SMILES. Where “and” joins values, the source holds several entries; their conditions need not be identical. Equal entries are not always repeated.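 Where inhibition never reached the appropriate level, the endpoint shown equals the highest concentration tested. Otherwise, values were interpolated linearly from a five-concentration, 48-hour dose response in 96-well plates. GI50: concentration for 50% inhibition of growth. TGI: concentration producing complete growth inhibition.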

As to `Cc1ccc(S(=O)(=O)NCCSCCNS(=O)(=O)c2ccc(C)cc2)cc1`, the TGI with COLO 205 colon, with NCI-H226 lung, in the experiment with KM12 colon, in the experiment with MDA-MB-231 breast, in the experiment on ACHN renal and in the experiment with SNB-75 CNS was greater than 100 µM throughout. The TGI in the experiment on HCC-2998 colon, in the experiment on NCI-H460 lung and in the experiment on OVCAR-4 ovarian was greater than 100 µM in each case.

As to `Cc1ccc(Oc2ccc(C)cc2[N+](=O)[O-])cc1`, the TGI with HL-60(TB) leukemia is 79.7 µM; with COLO 205 colon, greater than 100 µM; in the experiment with NCI-H226 lung, greater than 100 µM; with KM12 colon it was greater than 100 µM; with IGROV1 ovarian, greater than 100 µM; in the experiment on ACHN renal, greater than 100 µM. The TGI in the experiment on MALME-3M melanoma, in the experiment on HOP-62 NSCLC, in the experiment with SNB-75 CNS, with SF-539 CNS, with HCC-2998 colon and in the experiment on NCI-H460 lung was greater than 100 µM each time. The same compound showed a TGI in the experiment on OVCAR-4 ovarian greater than 100 µM.

Regarding `O=S(=O)(Sc1ccc(Cl)cc1)c1ccc(Cl)cc1`, the TGI was found to be 33 µM in the experiment with HL-60(TB) leukemia; 31.8 µM with COLO 205 colon; 30.9 µM with NCI-H226 lung; 32.5 µM with KM12 colon; 31.1 µM with IGROV1 ovarian; 31.2 µM in the experiment with ACHN renal. The TGI worked out at 48.9 µM in the experiment with MALME-3M melanoma; 30.9 µM with HOP-62 NSCLC; 40.5 µM in the experiment with SNB-75 CNS; 27.7 µM with SF-539 CNS; 40.7 µM in the experiment on HCC-2998 colon; 37.4 µM in the experiment on NCI-H460 lung. The TGI with OVCAR-4 ovarian was determined as 41.7 µM.

Consider `CCOC(=O)/C(Cl)=C(\C)Nc1nc2c(ccc3ccccc32)s1`, for which the TGI in the experiment on HL-60(TB) leukemia, with COLO 205 colon, in the experiment on NCI-H226 lung, in the experiment with KM12 colon, in the experiment on MDA-MB-231 breast and in the experiment with IGROV1 ovarian was greater than 100 µM each time. Also, the TGI in the experiment on ACHN renal was greater than 100 µM; with MALME-3M melanoma, greater than 100 µM; in the experiment on HOP-62 NSCLC, greater than 100 µM; in the experiment on SNB-75 CNS it was greater than 100 µM; in the experiment on HCC-2998 colon it was 39.2 µM; with NCI-H460 lung, 69.3 µM. In the experiment on OVCAR-4 ovarian, the TGI is greater than 100 µM.

Consider `Cc1cc(NCc2cc(Nc3ccnc4cc(Cl)ccc34)ccc2F)nc(N2CCCC2)n1`, for which the GI50 in the experiment with KM12 colon is 1.97 µM; in the experiment on IGROV1 ovarian it was 1.69 µM; in the experiment with HOP-62 NSCLC, 1.42 µM; in the experiment with NCI-H460 lung it was 1.35 µM; with OVCAR-4 ovarian, 1.27 µM. The TGI in the experiment with KM12 colon came out at 4.53 µM; in the experiment on IGROV1 ovarian, 4.2 µM; with HOP-62 NSCLC, 3.14 µM; with NCI-H460 lung, 2.96 µM; with OVCAR-4 ovarian, 4.54 µM.

For the compound `O=c1ccc2cc(O)c(O)cc2o1`, the TGI in the experiment with HL-60(TB) leukemia, in the experiment with COLO 205 colon, in the experiment with NCI-H226 lung, with KM12 colon, in the experiment on MDA-MB-231 breast and with IGROV1 ovarian was greater than 100 µM each time. Besides, the TGI in the experiment on ACHN renal, with MALME-3M melanoma, in the experiment on HOP-62 NSCLC, in the experiment with SNB-75 CNS, in the experiment on SF-539 CNS and in the experiment on HCC-2998 colon was greater than 100 µM throughout. Also, the TGI in the experiment with NCI-H460 lung and in the experiment on OVCAR-4 ovarian was greater than 100 µM in each case.

`COc1ccc(N2C(=O)C3c4[nH]c5c(C)cccc5c4C4CCC(C(C)(C)C)CC4C3C2=O)cc1` (centres undefined): the TGI in the experiment on HL-60(TB) leukemia, in the experiment on COLO 205 colon, in the experiment with NCI-H226 lung, in the experiment with KM12 colon, in the experiment with MDA-MB-231 breast and in the experiment on IGROV1 ovarian was greater than 10 µM in each case. Moreover, the TGI in the experiment on ACHN renal was greater than 10 µM; in the experiment on MALME-3M melanoma, greater than 10 µM; in the experiment with HOP-62 NSCLC, greater than 10 µM; with SNB-75 CNS it was greater than 10 µM; in the experiment on SF-539 CNS, greater than 10 µM; in the experiment with HCC-2998 colon, 7.61 µM. For the same compound, the TGI in the experiment on NCI-H460 lung is 6.63 µM; with OVCAR-4 ovarian, greater than 10 µM.

Take `CN(C)CCNc1nc(-c2ccc3ccccc3c2)nc2nc[nH]c12`: the TGI in the experiment on HL-60(TB) leukemia was greater than 100 µM; in the experiment with COLO 205 colon, 21.7 µM; in the experiment with NCI-H226 lung it was 16.6 µM; in the experiment with KM12 colon, 19.3 µM; in the experiment on MDA-MB-231 breast, 26.5 µM; in the experiment with IGROV1 ovarian it was 15.4 µM. The TGI turned out to be 11.9 µM in the experiment with ACHN renal; 16.6 µM with MALME-3M melanoma; 23.1 µM in the experiment with HOP-62 NSCLC; 4.44 µM in the experiment with SNB-75 CNS; 10.6 µM with HCC-2998 colon; 15.6 µM in the experiment on NCI-H460 lung. In the experiment on OVCAR-4 ovarian, this compound yielded a TGI of 23.8 µM.

Turning to `CC(=O)C(O)N1C(=O)C=CC1=O` (centres undefined), the TGI was 25 µM and 31.2 µM and 34.7 µM in the experiment with KM12 colon; 25 µM and 34.8 µM and 33.1 µM with NCI-H460 lung. Besides, the GI50 in the experiment with MDA-MB-231 breast is 13400 µM.

For `CC12CCC(C(=O)OC1=O)C(C)(C)O2` (centres undefined), the TGI in the experiment on COLO 205 colon, in the experiment on NCI-H226 lung, with KM12 colon, in the experiment with IGROV1 ovarian, in the experiment on ACHN renal and with MALME-3M melanoma was greater than 100 µM in each case. In addition, the TGI in the experiment on HOP-62 NSCLC, in the experiment on SNB-75 CNS, in the experiment on SF-539 CNS, in the experiment with HCC-2998 colon, in the experiment with NCI-H460 lung and in the experiment on OVCAR-4 ovarian was greater than 100 µM throughout.

`NC(=O)NN=C(CS)CS`: the TGI in the experiment with HL-60(TB) leukemia is 2.52 µM; in the experiment with COLO 205 colon, 46.6 µM; in the experiment with KM12 colon, greater than 100 µM; with IGROV1 ovarian, greater than 100 µM; in the experiment on MALME-3M melanoma, 40 µM; in the experiment with HOP-62 NSCLC it was 41.9 µM. Besides, the TGI is greater than 75.3 µM in the experiment with SNB-75 CNS; 40.7 µM in the experiment with SF-539 CNS; greater than 77.5 µM with HCC-2998 colon; 59 µM in the experiment on NCI-H460 lung; greater than 100 µM in the experiment with OVCAR-4 ovarian.

Turning to `CN(C)c1ccc(/C=N\NC(=O)CSCC(=O)N/N=C/c2ccc(N(C)C)cc2)cc1`, the TGI in the experiment with HL-60(TB) leukemia was greater than 100 µM; in the experiment with COLO 205 colon, greater than 100 µM; with NCI-H226 lung, greater than 100 µM; with KM12 colon, greater than 100 µM; with MDA-MB-231 breast, 58.6 µM; with IGROV1 ovarian it was greater than 100 µM. For the same compound, the TGI in the experiment with ACHN renal, with MALME-3M melanoma, in the experiment with HOP-62 NSCLC, in the experiment with SNB-75 CNS, in the experiment on SF-539 CNS and in the experiment on NCI-H460 lung was greater than 100 µM throughout. For the same compound, in the experiment with OVCAR-4 ovarian, the TGI is greater than 100 µM.

As for `COc1ccc([C@@H]2ON(C)[C@H]3CN(C)C(=O)[C@@H]23)cc1`, the TGI in the experiment with HL-60(TB) leukemia, with COLO 205 colon, in the experiment on NCI-H226 lung, in the experiment on MDA-MB-231 breast, in the experiment with IGROV1 ovarian and in the experiment on ACHN renal was greater than 100 µM in each case. Besides, the TGI in the experiment on HOP-62 NSCLC, in the experiment with SNB-75 CNS, in the experiment on HCC-2998 colon, in the experiment with NCI-H460 lung and in the experiment on OVCAR-4 ovarian was greater than 100 µM throughout.

Take `CCCCCCCSc1nc2c(C(=O)OCC)ncn2c2ccccc12`: the TGI in the experiment on HL-60(TB) leukemia, in the experiment with COLO 205 colon, in the experiment with NCI-H226 lung, with KM12 colon, in the experiment on IGROV1 ovarian and in the experiment with ACHN renal was greater than 100 µM throughout. The TGI in the experiment with MALME-3M melanoma, in the experiment on HOP-62 NSCLC, in the experiment with HCC-2998 colon and in the experiment with NCI-H460 lung was greater than 100 µM in each case.

(Values after PubChem BioAssay (NCI).)
